{"source": "patent US10059636B2", "about": "“Pesticide product including polyanionic polymers” (Verdesian Life Sciences, LLC, priority 2013, dated 2018)", "test_system": "cotton", "experiment": "Phosphorous fixation field test with DAP on cotton", "format": "in vivo", "settings": "for % by weight Phosphorous in Tissue: cotton tissue prior to first bloom", "from_the_text": "In a field test, two rates of phosphorous as diammonium phosphate (DAP) were broadcast-applied as a pre-plant fertilizer to a cotton field, namely 65 lbs of DAP per acre and 130 lbs of DAP per acre. The tests were two replications each of an unfertilized control, a DAP-only control, and DAP mixed with 0.25% w/w of a Class I polymer formulation. The formulation included 40% w/w of a partial zinc/sodium salt of T5 polymer, 5% w/w zinc, and the balance water, pH about 3,\nTissue tests were taken prior to first bloom from each plot, and the percent of phosphorous in the plant tissue was measured. After harvesting, lint yields were measured.", "data": [{"smiles": "N.N.O=P(O)(O)O", "note": "[DAP, diammonium phosphate]", "values": [{"measurement": "Lint Yield", "setting": "65 lbs of DAP per acre", "value": 712, "unit": "lbs/acre"}, {"measurement": "% by weight Phosphorous in Tissue", "setting": "65 lbs of DAP per acre", "value": 0.41, "unit": "% by weight"}, {"measurement": "Lint Yield", "setting": "130 lbs of DAP per acre", "value": 781, "unit": "lbs/acre"}, {"measurement": "% by weight Phosphorous in Tissue", "setting": "130 lbs of DAP per acre", "value": 0.41, "unit": "% by weight"}]}]}
